Tests used:
Red blood cells = experiment: Deformability measurements with an ektacytometer (Shear-scan, Osmo-scan); type: cell-based, human; details: 5 mM DTBP for 1 h
Description: Red blood cells were cross-linked with 5 mM DTBP for 1 h. Cross-linking was reversed with 10 mM DTT for 20 min. Deformability measurements were made with fresh untreated, cross-linked, and reversed cells as well as with untreated packed cells stored in CPDA-1 for 6 weeks at 4° C. The effects of cross-linking and reversal on red blood cell deformability were measured with an ektacytometer (Technicon).
The ektacytometer is a laser diffraction viscometer described in detail by Bessiss and Mohandas. Intact red blood cells and ghosts suspended in solution produce a diffuse circular laser diffraction pattern. The instrument takes advantage of the fact that when a shear force is applied to the solution crossing the beam the cells align in the direction of shear and begin deforming into uniformly oriented ellipsoids. The laser diffraction pattern then takes on an ellipsoidal shape oriented 90° from the major elliptical cell axis, with the ratio of the long axis to the short axis length determined by the degree of cell deformation. A signal proportional to mean cellular ellipticity is derived from photometric measurement of this laser diffraction pattern in the two axis directions and is designated the deformability index (DI).
Two types of deformability profiles were generated in the present experiments. […] Shear-scans were run with 40 μl of concentrated cell suspension (80% hematocrit) mixed with 3.0 ml of 3.1% (w/v) polyvinylpyrrolidone (P, av-MW 360 kD) solution containing 138 mM NaCl, 6.34 mM Na2HPO4, 2 mM NaH2PO4, and 0.04% (w/v) NaN3 with pH=7.35±0.05, osmolality=290 mOsmol/kg (by freezing point depression), and viscosity=20 cp (assumed). Osmo-scans were run by continuous addition of this suspension medium containing 100 μl of cells to a PVP solution with a graded salt concentration. Salt gradients were made by addition of high salt PVP solution with 386 mM NaCI (osmolality=750 mOsmol/kg) to a low salt PVP solution with 2.5 mM NaCl (osmolality=40 mOsmol/kg). Conductance measurements of the cell suspension in the viscometer provided an indirect measure of osmolality, which was calculated from a standard calibration curve.
Data was recorded onto a computer, and curves were fitted and plotted using custom routines in Matlab (The Math Works Inc, Natick, Mass.). Shear scans were fitted with a polynomial of degree 6 from which the maximum DI (DImax) was calculated. Osmo-scans were fitted with a running average, and DImax was calculated within the range of 180-240 mOsmol/Kg, along with the osmolality corresponding to 1/2DImax at hypertonic salt concentrations (0′), where DI decreases with increasing intracellular viscosity secondary to cell shrinkage and increased hemoglobin concentration (see Mohandas et al., J. Clin. Invest. 66563-73(1980)). The osmolality corresponding to the minimum DI (Omin) at hypotonic salt concentrations, where DI falls due to cell swelling, was also calculated. The height of the small DI peak thought to be associated with the sudden availability of excess membrane for deformation as intracellular ions and water are lost in the lower range of hypotonic salt (63-125 mOsmol/Kg) concentrations was also recorded (see Clark et al., Blood 61 899-910 (1983)).

Red cells = experiment: Oxygen carrying ability (oxygen content by CO-oximeter); type: cell-based, human; details: CO-treated
Description: A semi-quantitative measure of oxygen carrying ability by DTBP cross-linked and reversed cells was performed. Red cells cross linked with 5 mM DTBP for different incubation times and cells reversed with DTT (see above) were processed through a membrane oxygenator to replace CO with oxygen. Oxygen saturation of the cells was measured using a CO-oximeter. After the oxygenation, cells were subjected to deoxygenation under a stream of nitrogen for 30 min. Percentage oxygen was measured again by the CO-oximeter. Oxygen binding and releasing properties for cross-linked, reversed and normal cells were compared.
We measured oxygen content (Vol%O2) of cells subjected to cross-linking and reversal with a CO-oximeter 282. […] CO-treated and cross-linked cells with 5 mM DTBP for 5 h, which underwent re-oxygenation in the membrane oxygenator had oxygen content of 7.3 Vol%O2.

For `COC(=N)CCSSCCC(=N)OC` [DTBP, Dimethyl-3,3′-dithiobispropionimidate], the DImax (Red blood cells; Osmo-scan) was 0.30, the “Omin (osmolality corresponding to the minimum DI)” value (Red blood cells; Osmo-scan) was 125 mOsmol/Kg and the “O′ (osmolality corresponding to 1/2DImax at hypertonic salt)” value (Red blood cells; Osmo-scan) was 264 mOsmol/Kg. For the same compound, the “reduction of DImax” value (Red blood cells; Osmo-scan, FIG. 7) was 36%, the “reduction of red cell deformability as a function of shear stress” value (Red blood cells; Shear-scan, FIG. 6) was “over half” and the oxygen content (Red cells; 5 mM DTBP 5 h, re-oxygenated then deoxygenated with nitrogen) was 2.9 Vol%O2. The oxygen content (Red cells; 5 mM DTBP for 5 h, re-oxygenated in membrane oxygenator) was 7.3 Vol%O2.
